Laboratory results taken from patent US10774039B2, “Cyclopropene amino acids and methods” (United Kingdom Research and Innovation, priority 2014, dated 2020).

Experiments:
PylRS/tRNACUA pair = PylRS/tRNACUA pair (Methanosarcina mazei, UniProt Q8PWY1); test: Amber suppression of mCherry-TAG-EGFP-HA in HEK293 cells (western blot); type: cell-based; parameters: expressed in transfected cells; host or cells: HEK293 (ATCC CRL-1573); conditions: amber stop codon
Procedure: Anti-FLAG detected tagged PylRS. FIG. 8B: Specific labelling of mCh-TAG-EGFP-HA (immunoprecipitated from 10^6 cells) with 4a (20 μM in 50 μL PBS, 1 h, RT) confirms the incorporation of 3 into protein in HEK293 cells. FIG. 8C: SORT-M labelling of 3 that is statistically incorporated into newly synthesised proteins across the whole proteome of mammalian cells directed by six different PylRS/PyltRNAXXX (mutants using 0.5 mM 3. Labeling with 4g (20 μM in PBS, 1 h, RT, as above). The amino acids in parentheses are the natural amino acids encoded by the endogenous tRNA bearing the corresponding anti-codon.
HEK293 Cells (ATCC CRL-1573) were plated on 24 well plates and grown to near confluence. The cells were transfected using Lipofectamine 2000 (Invitrogen) with the pMmPylS-mCherry-TAG-EGFP-HA construct and the p4CMVE-U6-PylT construct.^18 After 16 hrs growth with or without 1 mM 3 or with 1 mM 1 the cells were lysed on ice using RIPA buffer (Sigma). The lysates were spun down and the supernatant was added to 4×LDS sample buffer (Life technologies). The samples were run out by SDS-PAGE, transferred to a nitrocellulose membrane and blotted using primary rat anti-HA(clone 3F10, Roche, No. 867 423) and mouse anti-FLAG (clone G191, Abnova, cat. MAB8183), the secondary antibodies were anti-rat (Invitrogen, A11077) and anti-mouse (Cell Signaling Technologies, No. 7076S).

PylRS, PyltRNAUUU = test: Time-dependent proteome incorporation of 3 via SORT-M in E. coli, detected with 4a; type: cell-based; conditions: AAA codon, detection with 4a
Procedure: Chemically competent DH10B cells were transformed with two plasmids: pBKwtPylRS necessary for expression of PylRS, and pBAD_wtT4LMbPylTUUU plasmid that is required for expression of PyltRNAUUU. pBAD_wtT4L_MbPylTUUU plasmid also contains the gene for expression of T4 lysozyme that is downstream of arabinose-inducible promoter. After transformation, cells were recovered in 1 ml SOB medium for one hour at 37° C. prior to inoculation in 10 ml LB-KT (LB media with 50 μg ml^−1 kanamycin, and 25 μg tetracycline). The culture was incubated overnight (37° C., 250 rpm, 12 h) and subsequently diluted to an OD600˜0.3 in 30 mL LB-KT1/2 (LB media with 25 μg ml^−1 kanamycin, and 12.5 μg ml^−1 tetracycline) supplemented with 3 at different concentrations, 0, 0.1, 0.5 mM. The cultures was incubated (37° C., 250 rpm) for 1 h, when OD600 reached approximately 0.6. 2 ml culture aliquot was collected in a separate tube for each of three cultures. This is the pre-induction culture (lane labelled as 1 in the gel image). Subsequently arabinose was added at a final concentration of 0.2% (v/v) to induce expression of T4 lysozyme and culture aliquots of 2 mL were collected every hour (lanes labelled as 2, 3 and 4 corresponding to 1, 2 and 3 h culture collection after induction). […] Samples were analysed by 4-12% SDS-PAGE and fluorescent images were acquired using Typhoon Trio phosphoimager (GE Life Sciences) […]

Chain of PylRS/tRNACUA pair (Q8PWY1 whole entry): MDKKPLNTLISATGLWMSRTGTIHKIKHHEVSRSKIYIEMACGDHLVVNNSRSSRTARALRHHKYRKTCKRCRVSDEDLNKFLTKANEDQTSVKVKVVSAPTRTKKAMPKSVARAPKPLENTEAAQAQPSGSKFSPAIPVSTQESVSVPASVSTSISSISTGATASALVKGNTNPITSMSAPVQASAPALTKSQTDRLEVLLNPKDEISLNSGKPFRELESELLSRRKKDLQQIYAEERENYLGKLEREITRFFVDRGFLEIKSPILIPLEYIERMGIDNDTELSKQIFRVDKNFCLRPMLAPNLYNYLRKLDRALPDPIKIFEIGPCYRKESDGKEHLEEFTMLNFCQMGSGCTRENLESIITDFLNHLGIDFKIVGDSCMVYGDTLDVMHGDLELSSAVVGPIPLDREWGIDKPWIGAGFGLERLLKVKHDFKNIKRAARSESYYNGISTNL

CC1=CC1COC(=O)NCCCC[C@H](N)C(=O)O (stereo partly drawn) [amino acid 3, N^ε-[((2-methylcycloprop-2-en-1-yl)methoxy)carbonyl]-L-lysine]
full-length mCherry-EGFP-HA protein expression (PylRS/tRNACUA pair): detected only in the presence
time to substantial labelling after amino acid addition (PylRS, PyltRNAUUU): ≤ 1 h
